Experimental data from ChEMBL document CHEMBL1201861, “Genomics of Drug Sensitity in Cancer screening data, Wellcome Trust Sanger Institute”.

Key:
Assay in all cases: cells
L-428 = assay type: functional, cell-based, Homo sapiens; details: Homo sapiens, L-428
Description: SANGER: Inhibition of human L-428 cell growth in a cell viability assay.

CTV-1 = assay type: functional, cell-based, Homo sapiens; details: Homo sapiens, CTV-1;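 further: growth inhibition of the cell line, read out with a cell viability assay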
Description: SANGER: Inhibition of human CTV-1 cell growth in a cell viability assay.

RS4-11 = assay type: functional, cell-based, Homo sapiens; details: Homo sapiens, RS4-11;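 further: growth inhibition of RS4-11 cells, read out by a cell viability assay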
Description: SANGER: Inhibition of human RS4-11 cell growth in a cell viability assay.

JVM-3 = assay type: functional, cell-based, Homo sapiens; details: Homo sapiens, JVM-3;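 further: growth inhibition of human JVM-3 cells, read out with a cell viability assay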
Description: SANGER: Inhibition of human JVM-3 cell growth in a cell viability assay.

MS-1 = assay type: functional, cell-based, Homo sapiens; details: Homo sapiens, MS-1;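 further: growth inhibition of MS-1 cells, read out by cell viability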
Description: SANGER: Inhibition of human MS-1 cell growth in a cell viability assay.

MN-60 = assay type: functional, cell-based, Homo sapiens; details: Homo sapiens, MN-60;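 further: growth inhibition of the MN-60 cell line, determined with a cell viability assay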
Description: SANGER: Inhibition of human MN-60 cell growth in a cell viability assay.

NOMO-1 = assay type: functional, cell-based, Homo sapiens; details: Homo sapiens, NOMO-1;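 further: growth inhibition of human NOMO-1 cells measured by a cell viability assay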
Description: SANGER: Inhibition of human NOMO-1 cell growth in a cell viability assay.

K562 = assay type: functional, cell-based, Homo sapiens; details: Homo sapiens, K562
Description: SANGER: Inhibition of human K-562 cell growth in a cell viability assay.

MZ2-MEL = assay type: functional, cell-based, Homo sapiens; details: Homo sapiens, MZ2-MEL;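 further: growth inhibition of MZ2-MEL cells read out with a cell viability assay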
Description: SANGER: Inhibition of human MZ2-MEL cell growth in a cell viability assay.

ES5 = assay type: functional, cell-based, Homo sapiens; details: Homo sapiens, ES5;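 further: growth inhibition of human ES5 cells, read out by a cell viability assay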
Description: SANGER: Inhibition of human ES5 cell growth in a cell viability assay.

SW684 = assay type: functional, cell-based, Homo sapiens; details: Homo sapiens, SW684; read-out: IC50;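 further: growth inhibition of human SW684 cells, measured by a cell viability assay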
Description: SANGER: Inhibition of human SW684 cell growth in a cell viability assay.

KM-H2 = assay type: functional, cell-based, Homo sapiens; details: Homo sapiens, KM-H2;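 further: growth inhibition of KM-H2 cells, read out by a cell viability assay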
Description: SANGER: Inhibition of human KM-H2 cell growth in a cell viability assay.

C8166 = assay type: functional, cell-based, Homo sapiens; details: Homo sapiens, C8166;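 further: growth inhibition of human C8166 cells measured by a cell viability assay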
Description: SANGER: Inhibition of human C8166 cell growth in a cell viability assay.

SW 954 = assay type: functional, cell-based, Homo sapiens; details: Homo sapiens, SW 954;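 further: growth inhibition of SW954 human cancer cells, read out as cell viability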
Description: SANGER: Inhibition of human SW954 cell growth in a cell viability assay.

NB69 = assay type: functional, cell-based, Homo sapiens; details: Homo sapiens, NB69;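 further: growth inhibition of NB69 cells, determined by a cell viability assay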
Description: SANGER: Inhibition of human NB69 cell growth in a cell viability assay.

NB13 = assay type: functional, cell-based, Homo sapiens; details: Homo sapiens, NB13;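 further: cell viability readout measuring growth inhibition of human NB13 cells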
Description: SANGER: Inhibition of human NB13 cell growth in a cell viability assay.

TE-11 = assay type: functional, cell-based; details: Homo sapiens;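 further: growth inhibition of human TE-11 cells, read out by a cell viability assay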
Description: SANGER: Inhibition of human TE-11 cell growth in a cell viability assay.

HCC2218 = assay type: functional, cell-based, Homo sapiens; details: Homo sapiens, HCC2218;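 further: cell viability assay read-out, with IC50 given as the concentration that inhibits growth of the cell line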
Description: SANGER: Inhibition of human HCC2218 cell growth in a cell viability assay.

NCI-H1648 = assay type: functional, cell-based, Homo sapiens; details: Homo sapiens, NCI-H1648;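 further: cell viability assay measuring inhibition of NCI-H1648 cell growth, from the Sanger screening data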
Description: SANGER: Inhibition of human NCI-H1648 cell growth in a cell viability assay.

LS-411N = assay type: functional, cell-based, Homo sapiens; details: Homo sapiens, LS-411N
MOLT-16 = assay type: functional, cell-based, Homo sapiens; details: Homo sapiens, MOLT-16;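 further: growth inhibition of human MOLT-16 cells, read out with a cell viability assay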
Description: SANGER: Inhibition of human MOLT-16 cell growth in a cell viability assay.

NCI-H2126 = assay type: functional, cell-based, Homo sapiens; details: Homo sapiens, NCI-H2126;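 further: growth inhibition of the cancer cell line, determined with a cell viability readout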
Description: SANGER: Inhibition of human NCI-H2126 cell growth in a cell viability assay.

TE-6 = assay type: functional, cell-based, Homo sapiens; details: Homo sapiens, TE-6;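 further: growth inhibition of TE-6 cells, read out with a cell viability assay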
Description: SANGER: Inhibition of human TE-6 cell growth in a cell viability assay.

DB = assay type: functional, cell-based, Homo sapiens; details: Homo sapiens, DB
Description: SANGER: Inhibition of human DB cell growth in a cell viability assay.

SNU-C2B = assay type: functional, cell-based; details: Homo sapiens;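 further: cell viability readout used to measure compound-driven suppression of SNU-C2B cell proliferation, IC50 marking half-maximal growth inhibition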
Description: SANGER: Inhibition of human SNU-C2B cell growth in a cell viability assay.

OMC-1 = assay type: functional, cell-based, Homo sapiens; details: Homo sapiens, OMC-1;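 further: growth inhibition of the OMC-1 cell line, measured by a cell viability assay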
Description: SANGER: Inhibition of human OMC-1 cell growth in a cell viability assay.

SCH = assay type: functional, cell-based, Homo sapiens; details: Homo sapiens, SCH;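 further: growth inhibition of human SCH cells, read out in a cell viability assay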
Description: SANGER: Inhibition of human SCH cell growth in a cell viability assay.

COLO-320-HSR = assay type: functional, cell-based, Homo sapiens; details: Homo sapiens, COLO-320-HSR;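 further: growth inhibition of COLO-320-HSR cells, determined with a cell viability assay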
Description: SANGER: Inhibition of human COLO-320-HSR cell growth in a cell viability assay.

Becker = assay type: functional, cell-based, Homo sapiens; details: Homo sapiens, Becker;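 further: growth inhibition of Becker cells, read out with a cell viability assay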
Description: SANGER: Inhibition of human Becker cell growth in a cell viability assay.

LB771-HNC = assay type: functional, cell-based; details: Homo sapiens;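 further: growth inhibition of LB771-HNC human cells, read out with a cell viability assay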
Description: SANGER: Inhibition of human LB771-HNC cell growth in a cell viability assay.

ES3 = assay type: functional, cell-based, Homo sapiens; details: Homo sapiens, ES3;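 further: growth inhibition of ES3 cells, read out with a cell viability assay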
Description: SANGER: Inhibition of human ES3 cell growth in a cell viability assay.

SK-MEL-2 = assay type: functional, cell-based, Homo sapiens; details: Homo sapiens, SK-MEL-2;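 further: growth inhibition of human SK-MEL-2 cells measured with a cell viability assay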
Description: SANGER: Inhibition of human SK-MEL-2 cell growth in a cell viability assay.

ALL-PO = assay type: functional, cell-based, Homo sapiens; details: Homo sapiens, ALL-PO;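 further: growth inhibition of ALL-PO cells, read out by a cell viability assay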
Description: SANGER: Inhibition of human ALL-PO cell growth in a cell viability assay.

BT-474 = assay type: functional, cell-based, Homo sapiens; details: Homo sapiens, BT-474
Description: SANGER: Inhibition of human BT-474 cell growth in a cell viability assay.

COLO-668 = assay type: functional, cell-based, Homo sapiens; details: Homo sapiens, COLO-668
Description: SANGER: Inhibition of human COLO-668 cell growth in a cell viability assay.

EOL1 = assay type: functional, cell-based, Homo sapiens; details: Homo sapiens, EOL1;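 further: growth inhibition of EoL-1 cells, read out by a cell viability assay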
Description: SANGER: Inhibition of human EoL-1-cell cell growth in a cell viability assay.

COR-L88 = assay type: functional, cell-based, Homo sapiens; details: Homo sapiens, COR-L88;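 further: growth inhibition of COR-L88 cells, read out with a cell viability assay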
Description: SANGER: Inhibition of human COR-L88 cell growth in a cell viability assay.

LB2241-RCC = assay type: functional, cell-based, Homo sapiens; details: Homo sapiens, LB2241-RCC;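 further: cell viability assay measuring how strongly the cultured human renal carcinoma line is prevented from growing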
Description: SANGER: Inhibition of human LB2241-RCC cell growth in a cell viability assay.

Calu-6 = assay type: functional, cell-based, Homo sapiens; details: Homo sapiens, Calu-6;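 further: growth of human Calu-6 cells, read out by a cell viability assay, IC50 marking inhibition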
Description: SANGER: Inhibition of human Calu-6 cell growth in a cell viability assay.

COLO-824 = assay type: functional, cell-based, Homo sapiens; details: Homo sapiens, COLO-824
Description: SANGER: Inhibition of human COLO-824 cell growth in a cell viability assay.

NCI-H1304 = assay type: functional, cell-based, Homo sapiens; details: Homo sapiens, NCI-H1304;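 further: growth inhibition of the cancer cell line, measured in a cell viability assay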
Description: SANGER: Inhibition of human NCI-H1304 cell growth in a cell viability assay.

SNU-5 = assay type: functional, cell-based, Homo sapiens; details: Homo sapiens, SNU-5;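 further: cell viability readout used to measure growth inhibition in human NCI-SNU-5 cells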
Description: SANGER: Inhibition of human NCI-SNU-5 cell growth in a cell viability assay.

NB6 = assay type: functional, cell-based, Homo sapiens; details: Homo sapiens, NB6
Description: SANGER: Inhibition of human NB6 cell growth in a cell viability assay.

RH-1 = assay type: functional, cell-based, Homo sapiens; details: Homo sapiens, RH-1;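 further: growth inhibition of human RH-1 cells, read out with a cell viability assay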
Description: SANGER: Inhibition of human RH-1 cell growth in a cell viability assay.

NCI-H1155 = assay type: functional, cell-based, Homo sapiens; details: Homo sapiens, NCI-H1155;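 further: cell growth inhibition measured by a viability assay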
Description: SANGER: Inhibition of human NCI-H1155 cell growth in a cell viability assay.

TE-1 = assay type: functional, cell-based, Homo sapiens; details: Homo sapiens, TE-1
Description: SANGER: Inhibition of human TE-1 cell growth in a cell viability assay.

KU812 cell line = assay type: functional, cell-based, Homo sapiens; details: Homo sapiens, KU812;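 further: growth inhibition of KU812 cells, read out with a cell viability assay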
Description: SANGER: Inhibition of human KU812 cell growth in a cell viability assay.

NKM-1 = assay type: functional, cell-based, Homo sapiens; details: Homo sapiens, NKM-1;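 further: growth inhibition of NKM-1 cells, read out with a cell viability assay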
Description: SANGER: Inhibition of human NKM-1 cell growth in a cell viability assay.

Measured: IC50

Cc1cc(N2CCOCC2)cc2[nH]c(-c3c(NC[C@@H](O)c4cccc(Cl)c4)cc[nH]c3=O)nc12
0.49 µM: SW 954
5.02 µM: MOLT-16
3.98 µM: NCI-H2126
0.754 µM: TE-1
4.79 µM: Becker
4.8 µM: MZ2-MEL
0.498 µM: LS-411N
1.57 µM: EOL1
0.373 µM: ALL-PO
0.19 µM: NCI-H1648
0.152 µM: TE-11
0.23 µM: LB771-HNC
2.88 µM: CTV-1
2.71 µM: SNU-C2B
1.8 µM: RS4-11
1.19 µM: COLO-668
0.934 µM: COLO-320-HSR
0.293 µM: NB69
> 5.12 µM: all other assays above

C=CC(=O)N1CCCC(Nc2nc(Nc3ccc(N(C)C(=O)CC)cc3)nc3[nH]cnc23)C1 (stereo unspecified)
2.56 µM: SW 954
4.4 µM: EOL1
8.58 µM: NCI-H1648
> 10.2 µM: all other assays above
